One assay concerns HIV RNA. The assay is described as follows: RNA CaptureSeq of HIV RNA splicing in infected PBMCs. The assay is classed as cell-based, HIV-1. On the procedure:
(§1) Total RNA was extracted from infected and uninfected PBMC samples using TRIzol reagent (Invitrogen) following the manufacturer's protocol. The RNA concentrations and purity were determined using the RNA 6000 Bioanalyzer kit (Agilent). For cDNA synthesis, 1 μg of total RNA was treated with DNase I (Invitrogen) and then utilized as a template for reverse transcription using the Verso cDNA kit with a blend of random hexamers and anchored oligo-dT (Thermo Scientific), according to the manufacturer's instructions. After KAPA Hyper Prep (ROCHE) library preparation from 1 μg total RNA, we proceeded with SeqCap EZ capture (ROCHE) following the manufacturer's recommendations. Hybrid selection was performed with a custom SeqCap EZ Choice Library (Roche NimbleGen) containing the following regions; chromosome 8 (9,760,617 to 9,761,780 and 65,285,285 to 65,296,944). chromosome 20 (61,797,549 to 61,812,855), chromosome 1 (1,102,000 to 1,106,000), chromosome 13 (92,000,074 to 92,006,833), chromosome 15 (22,512,831 to […]) and the genome of the HIV Ada8 strain. This library was designed through the NimbleDesign portal (v1.2.R1) using genome build hg19 NCBI Build 37.1/GRCh37. Sequencing was performed on a NextSeq 500 (Illumina) with 18 samples on a HighOutput Cartridge (2×400 million reads of 75 bases each).
To profile viral transcriptional events modulated by ABX464 and thereby assess the full depth of the HIV transcriptome, we employed a recently described targeted RNA capture and sequencing strategy (RNA CaptureSeq). This strategy involves the construction of tiling arrays across the HIV genome, against which cDNAs are hybridized, eluted and sequenced. RNA CaptureSeq is similar to previous in-solution capture methods and exome sequencing approaches, but when combined with deep-sequencing technology, provides saturating coverage and permits the robust assembly of rare and unannotated HIV transcripts.
PBMCs from 6 HIV-negative donors were infected with the YU-2 strain, followed by treatment with ABX464. […] After cDNA capture from infected cells that were untreated or treated with ABX464, libraries were prepared and sequenced using an Illumina sequencing facility. To highlight potential new splicing events induced by ABX464, we used a custom bioinformatics pipeline with the main step involving the assembly of putative transcripts from targeted RNA sequencing reads to construct contigs (Illumina paired-end 2×75 bp) (FIGS. 6 A and B). The putative transcripts (contigs) were then mapped to the HIV genome. The HIV profiling datasets used in our analysis yielded high sequence coverage (2 to 30 million reads for the 9 kb genome), allowing deep quantification of HIV splice variants.
To test whether enhanced splicing by ABX464 generates new viral RNA variants, the splicing events were filtered and analyzed. After mapping the contigs to the genome of the YU-2 strain, the latter was used as an anchor for additional clustering and assembly of new HIV transcripts. The partial gene structures generated by the spliced alignment were merged whenever they shared consecutive splicing sites spanning an intronic viral sequence. The superstructures so formed correspond to all possible HIV gene structures for which each complete exon is supported by at least one of the alignments. At the HIV transcript level, this led to the formation of superassemblies, where each superassembly is a merge of initial contigs matching a predicted superstructure. […] FIG. 1C and Table III present the distribution of the number of contigs that were merged to form one superassembly for each donor. […]

The test system of a further assay is miR-429. Nature of the assay: RNA CaptureSeq read counts at the control locus miR-429. The following applies: PBMCs; control locus outside the miR-124 region. The assay is classed as cell-based, human. On the procedure:
Total RNA was extracted from infected and uninfected PBMC samples using TRIzol reagent (Invitrogen) following the manufacturer's protocol. The RNA concentrations and purity were determined using the RNA 6000 Bioanalyzer kit (Agilent). For cDNA synthesis, 1 μg of total RNA was treated with DNase I (Invitrogen) and then utilized as a template for reverse transcription using the Verso cDNA kit with a blend of random hexamers and anchored oligo-dT (Thermo Scientific), according to the manufacturer's instructions. After KAPA Hyper Prep (ROCHE) library preparation from 1 μg total RNA, we proceeded with SeqCap EZ capture (ROCHE) following the manufacturer's recommendations. […] Sequencing was performed on a NextSeq 500 (Illumina) with 18 samples on a HighOutput Cartridge (2×400 million reads of 75 bases each).
(§2) miR-124 is encoded from three independent genes, miR-124-1, miR-124-2, and miR-124-3, located on human chromosomes 8 and 20 (FIG. 4A). […] The total number of reads for untreated as well as ABX464 treated samples varied between 2 and 30 million in infected and uninfected PBMCs (Table V). The number of reads from the three loci encoding miR-124 in the treated samples were 4- to 12-fold higher than in the untreated samples (FIG. 4B, Table V), confirming that ABX464 led to a large increase in miR-124. […]

Assay [1] concerns miR-124 (miR-124-1, miR-124-2, miR-124-3 loci). The assay is described as follows: RNA CaptureSeq read counts at the miR-124 loci in PBMCs. The assay is classed as cell-based, human. Conditions: PBMCs treated with ABX464. Here is the method:
as §1
as §2, with “4A). To determine which of these genes is induced by ABX464, we employed targeted RNA CaptureSeq to assess the full depth of the transcriptome.” for “4A).”

Setting [2] is: PBMCs infected with YU2, treated with ABX464, one value per donor library.

The record followed here is patent US20220145406A1, “BIOMARKERS, AND USES IN TREATMENT OF VIRAL INFECTIONS, INFLAMMATIONS, OR CANCER” (ABIVAX, priority 2018, published 2022).

SMILES strings stand for the structures. “And” between values parts separate entries of the source, which are not always exact repeats. Identical values can stand only once.

In the case of `FC(F)(F)Oc1ccc(Nc2ccc3cccc(Cl)c3n2)cc1` [ABX464, 8-chloro-N-(4-(trifluoromethoxy)phenyl)quinolin-2-amine], in the assay on HIV RNA (ABX464-treated PBMC samples infected with YU-2), the “assembled contigs corresponding to spliced RNAs” value is 90%. For the same compound, in the assay on HIV RNA (setting [2]), the “contig counts spliced RNA transcripts Gag” value was 18 and 42 and 25 and 13 and 19 and 26; the “contig counts spliced RNA transcripts Pol” value was 67 and 61 and 17 and 14 and 12 and 35; the “contig counts spliced RNA transcripts Vif” value is 32 and 34 and 15 and 16 and 12 and 25; the “contig counts spliced RNA transcripts env” value is 59 and 42 (2×) and 37 and 13 and 35. In the assay on HIV RNA (setting [2]), the “contig counts spliced RNA transcripts rev” value is 23 and 21 and 17 and 9 and 12 and 29; the “contig counts spliced RNA transcripts tat” value is 16 and 18 (2×) and 19 and 15 and 24; the “contig counts spliced RNA transcripts vpr” value is 14 (2×) and 9 and 12 (2×) and 11; the “contig counts spliced RNA transcripts vpu” value was 7 and 5 and 13 and 11 (2×) and 17. Further, in the assay with HIV RNA (PBMCs infected with YU2, treated with ABX464, one value per donor library (D1, D4-D8)), the “contig counts Complete_mRNA” value was 11 and 13 and 6 (2×) and 32 and 15. Also, in the assay with miR-429, the “expression of miR-429” value was “no effect”. For the same compound, in assay [1] (one value per donor library), the “read counts mir124.2” value was 704 and 4 and 4222 and 362 and 2326 and 5452; the “read counts mir124.3” value was 6439 and 701 and 21941 and 2542 and 14460 and 7772. The “read counts mir124.1” value in assay [1] (one value per donor library (D1, D4-D8)) was 4014 and 7114 and 4748 and 324 and 2486 and 1088.
